Common to all, as to assay: growth of human tumour cells (NCI), 48 h
Assay [1] relates to A549 NSCLC.
The test system of assay [2] is COLO 205 colon.
Assay [3] concerns RPMI-8226 leukemia.
The test system of assay [4] is RXF 393 renal.
Assay [5] deals with HOP-62 NSCLC.
In assay [6] the test system is HCT-15 colon.
The test system of assay [7] is MOLT-4 leukemia.
For assay [8], the system named is ACHN renal.
Assay [9] relates to SK-MEL-28 melanoma.
The subject of assay [10] is SW-620 colon.

Structures are written as SMILES.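 Cells were grown in 96-well plates and exposed to each compound for 48 hours at five concentrations; endpoints were interpolated linearly between bracketing concentrations, or set to the highest concentration if not reached. GI50 is the concentration that inhibits growth by half. Definition used: TGI = concentration required for complete inhibition of growth.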

For the molecule `CC(=O)OC1C(O[C@H]2CC[C@]34O[C@]35CC[C@]3(C)C(C6(C)CC[C@@H](C(C)(C)O)O6)[C@@H](O)CC3(C)[C@@H]5CC(OC3OC(CO)C(O)C(O)C3O)C4C2(C)C)OCC(O)C1O` (some centres undefined), the TGI was above 100 µM in assay [1]; above 73.8 µM in assay [2]; above 71.3 µM in assay [3]; above 100 µM in assay [4]; above 100 µM in [5]; above 57.8 µM in assay [6]. Besides, the TGI in assay [7] was above 100 µM; in [8], above 100 µM; in [9], above 100 µM; in assay [10], above 49.3 µM.

As for `O=C(/C(=N/Nc1ccccc1)c1ccc([N+](=O)[O-])cc1)c1ccc([N+](=O)[O-])cc1`, the TGI in [1], in assay [2], in [3], in assay [4], in assay [6] and in assay [7] was above 100 µM in each case. In addition, the TGI in assay [8], in assay [9] and in [10] was above 100 µM in each case.

With `N#C/C(=C\c1ccccc1)C(NO)Nc1ccccc1` (centres undefined), the TGI in [1], in [2], in assay [3], in assay [4], in assay [5] and in [6] was above 100 µM each time. Further, the TGI in [7], in assay [8], in assay [9] and in assay [10] was above 100 µM throughout.

For the molecule `CCn1c(=N)sc2nc3ccccc3n2c1=O`, the TGI in assay [1], in assay [2], in [3], in [4], in assay [5] and in [6] was above 100 µM throughout. Moreover, the TGI in assay [7], in [8], in [9] and in assay [10] was above 100 µM each time.

As to `O=C([CH-]C(=O)c1ccccc1)c1ccccc1.O=C([CH-]C(=O)c1ccccc1)c1ccccc1.O=C([CH-]C(=O)c1ccccc1)c1ccccc1.[Cl-].[Zr+4]`, the GI50 in assay [1] is 33.9 µM; in assay [2], 25.7 µM; in assay [3], 16.6 µM; in [4], 15 µM; in assay [5], 20.1 µM; in assay [6], 18.2 µM. In addition, the GI50 was 9.75 µM in assay [7], 22 µM in [8], 13.2 µM in assay [9] and 33.8 µM in assay [10]. The TGI in [1] is above 100 µM; in assay [2], 78 µM; in assay [3] it was above 100 µM; in assay [4], 71.9 µM; in assay [5], 75.5 µM; in [6], above 100 µM. In addition, the TGI was above 100 µM in assay [7], above 100 µM in assay [8], 36.7 µM in assay [9] and above 100 µM in assay [10].

In the case of `COc1ccc2c(c1)O/C(=C\c1cccc(OCC(=O)Nc3nc(C)c(C)s3)c1)C2=O`, the GI50 is 2.18 µM in [1]; 22.3 µM in assay [2]; 1.66 µM in assay [3]; 1.06 µM in assay [4]; 0.542 µM in [5]; 6.76 µM in assay [6]. For the same molecule, the GI50 was 3.38 µM in assay [7], 2.28 µM in assay [8], 20.9 µM in assay [9] and 2.86 µM in assay [10]. Besides, the TGI was 6.43 µM in assay [1]; above 100 µM in assay [2]; 3.97 µM in assay [3]; 2.75 µM in [4]; 1.13 µM in assay [5]; above 100 µM in assay [6]. For the same molecule, the TGI was above 22.5 µM in assay [7], 7 µM in assay [8], above 100 µM in assay [9] and above 26.8 µM in assay [10].

On to `Cc1cccc(Nc2cc(Cl)nc(SCC(=O)O)n2)c1C`, for which the TGI in [1], in assay [2], in [3], in assay [4], in [5] and in assay [6] was above 100 µM each time. Besides, the TGI in assay [7], in assay [8], in assay [9] and in assay [10] was above 100 µM throughout.

As to `COc1cccc(NC(=O)c2sc3nc4c(cc3c2N)C(O)CCC4)c1` (centres undefined), the GI50 was 0.287 µM in [1]; 0.226 µM in assay [2]; 0.333 µM in assay [3]; 0.278 µM in [4]; 0.26 µM in [5]; 0.0856 µM in [6]. The GI50 in assay [7] was 0.294 µM; in assay [8], 0.956 µM; in [9], 0.787 µM; in assay [10] it was 0.107 µM. For the same molecule, the TGI in assay [1] is above 100 µM; in assay [2] it was 0.87 µM; in assay [3], above 100 µM; in assay [4], 37.7 µM; in assay [5], 64.6 µM; in assay [6] it was above 100 µM. For the same molecule, the TGI in [7], in [8], in assay [9] and in [10] was above 100 µM each time.

In the case of `COc1cc(-c2cc3ncccc3c3[nH]c(=O)c4cccnc4c23)cc(OC)c1OC`, the GI50 is 1.28 µM in [1]; 0.538 µM in assay [2]; 1.3 µM in assay [3]; 0.818 µM in assay [4]; 7.76 µM in [5]; 0.683 µM in [6]. Also, the GI50 in assay [7] is 0.782 µM; in assay [8], 0.885 µM; in assay [9], 0.957 µM; in assay [10] it was 0.493 µM. In addition, the TGI in assay [1] is above 100 µM; in [2], above 100 µM; in assay [3] it was 47.5 µM; in [4], 26.2 µM; in assay [5], above 100 µM; in assay [6] it was above 100 µM. Moreover, the TGI in [7] was 28.8 µM; in assay [8], above 100 µM; in assay [9] it was above 100 µM; in assay [10], above 100 µM.

Take `CCC(=O)C(C(=O)CC)c1c(OC(=O)c2ccccc2)ccc(O)c1C(=O)OC`: the TGI in assay [1], in assay [2], in assay [3], in assay [4], in assay [5] and in assay [6] was above 100 µM each time. The TGI in [7], in assay [8], in assay [9] and in assay [10] was above 100 µM each time.

Values taken from PubChem BioAssay (NCI).
